Results on eight compounds are retold here after patent US10689340B2, “Substituted indoline derivatives as dengue viral replication inhibitors” (priority 2016, dated 2020).

The test system of one data set is DENV-2 16681 strain. In words: DENV-2 antiviral assay (eGFP fluorescence). The format is cell-based, Dengue virus. The note with it: DENV-2 16681 eGFP, Vero cells, MOI 0.5, 3 days. Here is the method: The antiviral activity of all the compounds of the invention was tested against the DENV-2 16681 strain which was labeled with enhanced green fluorescent protein (eGPF). The culture medium consists of minimal essential medium supplemented with 2% of heat-inactivated fetal calf serum, 0.04% gentamycin (50 mg/mL) and 2 mM of L-glutamine. Vero cells, obtained from ECACC, were suspended in culture medium and 25 μL was added to 384-well plates (2500 cells/well), which already contain the antiviral compounds. Typically, these plates contain a 5-fold serial dilution of 9 dilution steps of the test compound at 200 times the final concentration in 100% DMSO (200 nL). […] Finally, each plate contains wells which are assigned as virus controls (containing cells and virus in the absence of compound), cell controls (containing cells in the absence of virus and compound) and medium controls (containing medium in the absence of cells, virus and compounds). To the wells assigned as medium control, 25 μL of culture medium was added instead of Vero cells. Once the cells were added to the plates, the plates were incubated for 30 minutes at room temperature to allow the cells to distribute evenly within the wells. Next, the plates were incubated in a fully humidified incubator (37° C., 5% CO2) until the next day. Then, DENV-2 strain 16681, labeled with eGFP, was added at a multiplicity of infection (MOI) of 0.5. Therefore, 15 μL of virus suspension was added to all the wells containing test compound and to the wells assigned as virus control. In parallel, 15 μL of culture medium was added to the medium and cell controls. Next, the plates were incubated for 3 days in a fully humidified incubator (37° C., 5% CO2). At the day of the read out, the eGFP fluorescence was measured using an automated fluorescence microscope at 488 nm (blue laser). Using an in-house LIMS system, inhibition dose response curves for each compound were calculated and the half maximal effective concentration (EC50) was determined. Therefore, the percent inhibition (I) for every test concentration is calculated using the following formula: I=100*(ST-SCC)/(SVC-SCC); ST, SCC and SVC are the amount of eGFP signal in the test compound, cell control and virus control wells, respectively. The EC50, represents the concentration of a compound at which the virus replication is inhibited with 50%, as measured by a 50% reduction of the eGFP fluorescent intensity compared to the virus control. The EC50 is calculated using linear interpolation (Table 1).

The nature of data set [1]: in vitro. Conditions: African green monkey.
Another data set has as its system DENV-3 strain H87. In words: Tetravalent RT-qPCR assay, serotype 3. It is filed as cell-based. Conditions: Dengue virus, DENV3, 72 h; RT-qPCR serotype 3 H87, Protocol A, Vero cells, day 3. Here is the method:
(§1) The antiviral activity of the compounds of the invention was tested against DENV-1 strain TC974#666 (NCPV), DENV-2 strain 16681, DENV-3 strain H87 (NCPV) and DENV-4 strain H241 (NCPV) in a RT-qPCR assay. Therefore, Vero cells were infected with either DENV-1, or -2, or -3, or -4 in the presence or absence of test compounds. At day 3 post-infection, the cells were lysed and cell lysates were used to prepare cDNA of both a viral target (the 3′UTR of DENV; Table 2) and a cellular reference gene (β-actin, Table 2). Subsequently, a duplex real time PCR was performed on a Lightcycler480 instrument. The generated Cp value is inversely proportional to the amount of RNA expression of these targets. Inhibition of DENV replication by a test compound results in a shift of Cp's for the 3′UTR gene. On the other hand, if a test compound is toxic to the cells, a similar effect on β-actin expression will be observed. The comparative ΔΔCp method is used to calculate EC50, which is based on the relative gene expression of the target gene (3′UTR) normalized with the cellular housekeeping gene (β-actin). In addition, CC50 values are determined based on the Cp values acquired for the housekeeping gene β-actin.
(§2) The culture medium consisted of minimal essential medium supplemented with 2% of heat-inactivated fetal calf serum, 0.04% gentamycin (50 mg/mL) and 2 mM of L-glutamine. Vero cells, obtained from ECACC, were suspended in culture medium and 75 μL/well was added in 96-well plates (10000 cells/well), which already contain the antiviral compounds. […] In addition, each plate contains wells which are assigned as virus controls (containing cells and virus in the absence of compound) and cell controls (containing cells in the absence of virus and compound). Once the cells were added in the plates, the plates were incubated in a fully humidified incubator (37° C., 5% CO2) until the next day. Dengue viruses serotype-1, -2, -3 and -4 were diluted in order to obtain a Cp of ˜22-24 in the assay. Therefore, 25 μL of virus suspension was added to all the wells containing test compound and to the wells assigned as virus control. In parallel, 25 μL of culture medium was added to the cell controls. Next, the plates were incubated for 3 days in a fully humidified incubator (37° C., 5% CO2). After 3 days, the supernatant was removed from the wells and the cells were washed twice with ice-cold PBS (˜100 μL). The cell pellets within the 96-well plates were stored at −80° C. for at least 1 day. Next, RNA was extracted using the Cells-to-CT^Tm lysis kit, according to the manufacturer's guideline (Life Technologies). The cell lysates can be stored at −80° C. or immediately used in the reverse transcription step.
(§3) In preparation of the reverse transcription step, mix A (table 3A) was prepared and 7.57 μL/well was dispensed in a 96-well plate. After addition of 5 μL of the cell lysates, a five minute denaturation step at 75° C. was performed (table 3B). Afterwards, 7.43 μL of mix B was added (table 3C) and the reverse transcription step was initiated (table 3D) to generate cDNA.
(§4) Finally, a RT-qPCR mix was prepared, mix C (table 4A), and 22.02 μL/well was dispensed in 96-well LightCycler qPCR plates to which 3 μL of cDNA was added and the qPCR was performed according to the conditions in table 4B on a LightCycler 480.
(§5) Using the LightCycler software and an in-house LIMS system, dose response curves for each compound were calculated and the half maximal effective concentration (EC50) and the half maximal cytotoxic concentration (CC50) were determined (Tables 5-8).

Data set [2] in a line: in vitro. It is filed as cell-based. The note with it: African green monkey, CC50. Here is the method:
as §1, with “The comparative ΔΔCp method is used to calculate EC50, which is based on the relative gene expression of the target gene (3′UTR) normalized with the cellular housekeeping gene (β-actin).” left out, “β-actin. […]” for “β-actin.”
as §5

Data set [3] relates to Vero cells. The data set can be described thus: in vitro. It is filed as cell-based. The note with it: African green monkey, 3 days. Here is the method: as §1, with “The comparative ΔΔCp method is used to calculate EC50, which is based on the relative gene expression of the target gene (3′UTR) normalized with the cellular housekeeping gene (β-actin).” left out, “β-actin. […]” for “β-actin.”
as §5

The next data set deals with DENV-4 strain H241. In words: Tetravalent RT-qPCR assay, serotype 4. It is filed as cell-based. Conditions: Dengue virus, DENV4, 72 h; RT-qPCR serotype 4 H241, Protocol A, Vero cells, day 3. The protocol:
as §1, §2, §3, §4, §5

The next data set deals with DENV-1 strain TC974#666. In words: Tetravalent RT-qPCR assay, serotype 1. The format is cell-based. Conditions: Dengue virus, DENV1, Vero, 72 h. The protocol:
as §1, §2, §3, §4, §5
(In general: Real-time PCR tracks product formation cycle by cycle.)

For the next data set, the system named is DENV-2 strain 16681. The data set can be described thus: Tetravalent RT-qPCR assay, serotype 2. It is filed as cell-based. The note with it: Dengue virus, DENV2, 72 h; RT-qPCR serotype 2 16681, Protocol A, Vero cells, day 3. Here is the method:
as §1, §2, §3, §4, §5

The test system of data set [4] is Vero cells. Conditions: African green monkey.
For another data set, the system named is DENV-2. The note with it: analogous DENV-2 antiviral assay, reported activity; cited from earlier work.

The structures appear in SMILES notation. Structures can show the parent of a compound that is named as a salt. Where two headings read alike, the source gives them in different places.

As a reminder, the melting point is the temperature of the solid-liquid transition. `COc1cc(NC(C(=O)N2CCc3cc(OC)c(C(F)(F)F)cc32)c2ccc(Cl)cc2OC)cc(OCCCC(=O)O)c1` (racemic) (as salt: HCl) [Compound 7, 4-(3-((1-(4-chloro-2-methoxyphenyl)-2-(5-methoxy-6-(trifluoromethyl)indolin-1-yl)-2-oxoethyl)amino)-5-methoxyphenoxy)butanoic acid] registered a melting point of 160 °C.
Regarding `COc1cc(NC(C(=O)N2CCc3ccc(OC(F)(F)F)cc32)c2ccc(Cl)cc2OC)cc(OCCCC(=O)O)c1` (racemic) (as salt: HCl) [Compound 8, 4-(3-((1-(4-chloro-2-methoxyphenyl)-2-oxo-2-(6-(trifluoro-methoxy)indolin-1-yl)ethyl)amino)-5-methoxyphenoxy)butanoic acid], the melting point turned out to be 139 °C.
The same measure, in the same setting: under `COc1cc(NC(C(=O)N2CCc3ccc(C(F)(F)F)cc32)c2ccc(Cl)cc2F)cc(OCCCC(=O)O)c1` (racemic) (as salt: HCl) [Compound 9, 4-(3-((1-(4-chloro-2-fluorophenyl)-2-oxo-2-(6-(trifluoromethyl)indolin-1-yl)ethyl)amino)-5-methoxy-phenoxy)butanoic acid] stands 110 °C; under `COc1cc(NC(C(=O)N2CCc3cc(OC)c(C(F)(F)F)cc32)c2ccc(Cl)cc2F)cc(OCCCC(=O)O)c1` (racemic) (as salt: HCl) [Compound 11, 4-(3-((1-(4-chloro-2-fluorophenyl)-2-(5-methoxy-6-(trifluoromethyl)indolin-1-yl)-2-oxoethyl)amino)-5-methoxyphenoxy)butanoic acid], 121 °C.
Broadly, the EC50 is the concentration needed to bring the measured effect to its halfway point. Compound `COc1cc(NC(C(=O)N2CCc3ccc(C(F)(F)F)cc32)c2ccc(Cl)cc2)cc(OCCCC(=O)O)c1` (racemic) [Compound 3, 4-(3-((1-(4-chlorophenyl)-2-oxo-2-(6-(trifluoromethyl)indolin-1-yl)ethyl)amino)-5-methoxyphenoxy)butanoic acid] yielded a melting point of 192 °C. This compound displayed an EC50 with DENV-2 16681 strain (Dengue virus, DENV2, Vero, 72 h) of 0.48 nM. In the data set “in vitro [1]”, this compound displayed a CC50 of 13000 nM.
As to `COc1cc(NC(C(=O)N2CCc3ccc(C(F)(F)F)cc32)c2ccc(Cl)cc2OC)cc(OCCCC(=O)O)c1` (single isomer, unassigned) [Compound 6B], the EC50 with DENV-3 strain H87 was found to be 1.7 nM; with DENV-2 16681 strain, 0.13 nM; in the data set on DENV-4 strain H241 it was 16 nM; in the data set on DENV-1 strain TC974#666, 0.47 nM; in the data set with DENV-2 strain 16681, 0.15 nM. For the same compound, the CC50 at 3 days in “in vitro [2]” was above 2500 nM. Moreover, the CC50 in the data set on Vero cells [3] is above 2500 nM; with Vero cells [4], 13000 nM.
Turning to `COc1cccc(NC(C(=O)N2CCc3ccccc32)c2ccccc2)c1` (centres unmarked) [(56) of WO-2013/045516], in the data set on DENV-2, the EC50 was 450 nM.
With `CNC(=O)c1cccc(NC(C(=O)c2c[nH]c3ccccc23)c2ccccc2)c1` (centres unmarked) [(170) of WO-2013/045516], the EC50 in the data set with DENV-2 is 440 nM.
